Measured values taken from patent US12479847B2 (DANA-FARBER CANCER INSTITUTE, INC., priority 2019, dated 2025).

Key:
Assay in all cases: KINOMEscan (ScanMAX) kinase profiling
Type in all cases: binding
panel of 468 kinases [1] = target: T1, panel of 468 kinases (Homo sapiens, UniProt P53667); conditions: LIMK1; 1 μM; read-out: % control
T1 construct: purchased KINOMEscan (ScanMAX) service

panel of 468 kinases [2] = target: T2, panel of 468 kinases (Homo sapiens, UniProt Q96NX5); conditions: CAMK1G; 1 μM; read-out: % control
T2 construct: purchased KINOMEscan (ScanMAX) service

panel of 468 kinases [3] = target: T3, panel of 468 kinases (Homo sapiens, UniProt Q9BQI3); conditions: EIF2AK1; 1 μM; read-out: % control
T3 construct: purchased KINOMEscan (ScanMAX) service

panel of 468 kinases [4] = target: T4, panel of 468 kinases (Homo sapiens, UniProt P54756); conditions: EPHA5; 1 μM; read-out: % control
T4 construct: purchased KINOMEscan (ScanMAX) service

panel of 468 kinases [5] = target: T5, panel of 468 kinases (Homo sapiens, UniProt Q96BR1); conditions: SGK3; 1 μM; read-out: % control
T5 construct: purchased KINOMEscan (ScanMAX) service
T5 sequence (Q96BR1 1-496): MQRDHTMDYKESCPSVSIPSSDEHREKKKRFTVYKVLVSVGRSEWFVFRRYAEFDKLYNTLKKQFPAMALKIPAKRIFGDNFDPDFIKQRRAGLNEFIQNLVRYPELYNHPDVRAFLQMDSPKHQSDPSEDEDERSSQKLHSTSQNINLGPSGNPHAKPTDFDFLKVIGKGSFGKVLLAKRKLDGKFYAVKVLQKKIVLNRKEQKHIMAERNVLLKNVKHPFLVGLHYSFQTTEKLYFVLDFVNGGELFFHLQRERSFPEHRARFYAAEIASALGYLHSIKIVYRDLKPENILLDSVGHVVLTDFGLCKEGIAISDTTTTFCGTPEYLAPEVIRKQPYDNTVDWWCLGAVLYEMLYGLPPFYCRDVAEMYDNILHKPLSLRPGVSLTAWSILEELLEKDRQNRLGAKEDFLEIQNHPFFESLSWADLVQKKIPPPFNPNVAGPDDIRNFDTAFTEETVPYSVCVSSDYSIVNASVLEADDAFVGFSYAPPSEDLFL

panel of 468 kinases [6] = target: T6, panel of 468 kinases (Homo sapiens, UniProt P00533, L861Q); conditions: EGFR(L861Q); 1 μM; read-out: % control
T6 construct: purchased KINOMEscan (ScanMAX) service

panel of 468 kinases [7] = target: T7, panel of 468 kinases (Homo sapiens, UniProt P27037); conditions: ACVR2A; 1 μM; read-out: % control
T7 construct: purchased KINOMEscan (ScanMAX) service

panel of 468 kinases [8] = target: T8, panel of 468 kinases (Homo sapiens, UniProt P35626); conditions: GRK3; 1 μM; read-out: % control
T8 construct: purchased KINOMEscan (ScanMAX) service
T8 sequence (P35626 1-688): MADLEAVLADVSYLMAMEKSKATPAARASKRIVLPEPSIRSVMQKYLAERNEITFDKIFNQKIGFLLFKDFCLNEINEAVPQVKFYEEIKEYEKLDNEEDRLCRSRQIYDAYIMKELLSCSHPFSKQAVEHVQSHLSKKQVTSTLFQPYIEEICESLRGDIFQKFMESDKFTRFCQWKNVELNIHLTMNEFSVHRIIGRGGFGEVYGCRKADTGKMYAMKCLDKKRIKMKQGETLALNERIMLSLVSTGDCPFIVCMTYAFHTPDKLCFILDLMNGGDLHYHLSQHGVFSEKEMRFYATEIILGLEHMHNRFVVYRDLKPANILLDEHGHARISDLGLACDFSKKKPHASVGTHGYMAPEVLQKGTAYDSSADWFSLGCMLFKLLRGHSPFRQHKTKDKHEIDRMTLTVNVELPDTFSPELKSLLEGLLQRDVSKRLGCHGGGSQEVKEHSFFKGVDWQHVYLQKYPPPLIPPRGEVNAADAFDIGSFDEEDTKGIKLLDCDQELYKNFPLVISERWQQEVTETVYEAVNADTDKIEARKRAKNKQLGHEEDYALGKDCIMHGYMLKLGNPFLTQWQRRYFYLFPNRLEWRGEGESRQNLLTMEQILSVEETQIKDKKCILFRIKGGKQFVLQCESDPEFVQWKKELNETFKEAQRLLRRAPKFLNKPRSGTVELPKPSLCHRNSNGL

panel of 468 kinases [9] = target: T9, panel of 468 kinases (Homo sapiens, UniProt Q07002); conditions: PCTK3; 1 μM; read-out: % control
T9 construct: purchased KINOMEscan (ScanMAX) service

panel of 468 kinases [10] = target: T10, panel of 468 kinases (Homo sapiens, UniProt Q8NFD2); conditions: ANKK1; 1 μM; read-out: % control
T10 construct: purchased KINOMEscan (ScanMAX) service
T10 sequence (Q8NFD2 1-765): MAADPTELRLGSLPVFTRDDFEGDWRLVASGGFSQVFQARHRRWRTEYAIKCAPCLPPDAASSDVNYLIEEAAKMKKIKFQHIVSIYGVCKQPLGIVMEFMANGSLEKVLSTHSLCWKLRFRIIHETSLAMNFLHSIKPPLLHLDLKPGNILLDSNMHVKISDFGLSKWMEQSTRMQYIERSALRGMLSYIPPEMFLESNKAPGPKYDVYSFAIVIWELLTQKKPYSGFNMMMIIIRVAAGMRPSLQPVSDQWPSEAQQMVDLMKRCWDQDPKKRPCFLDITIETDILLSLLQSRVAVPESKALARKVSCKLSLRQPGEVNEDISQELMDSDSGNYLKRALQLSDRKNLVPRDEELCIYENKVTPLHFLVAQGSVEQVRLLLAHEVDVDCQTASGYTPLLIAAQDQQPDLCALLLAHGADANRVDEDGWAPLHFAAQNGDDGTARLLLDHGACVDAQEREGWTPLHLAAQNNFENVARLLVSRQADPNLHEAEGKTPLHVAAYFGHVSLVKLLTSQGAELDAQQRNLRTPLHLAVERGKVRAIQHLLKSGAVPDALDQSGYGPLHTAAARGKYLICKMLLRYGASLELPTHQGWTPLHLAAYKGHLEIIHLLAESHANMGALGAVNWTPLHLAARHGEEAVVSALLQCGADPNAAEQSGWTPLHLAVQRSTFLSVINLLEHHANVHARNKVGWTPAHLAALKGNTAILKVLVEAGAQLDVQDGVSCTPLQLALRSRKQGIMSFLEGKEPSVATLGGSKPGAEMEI

T9 sequence (Q07002 whole entry): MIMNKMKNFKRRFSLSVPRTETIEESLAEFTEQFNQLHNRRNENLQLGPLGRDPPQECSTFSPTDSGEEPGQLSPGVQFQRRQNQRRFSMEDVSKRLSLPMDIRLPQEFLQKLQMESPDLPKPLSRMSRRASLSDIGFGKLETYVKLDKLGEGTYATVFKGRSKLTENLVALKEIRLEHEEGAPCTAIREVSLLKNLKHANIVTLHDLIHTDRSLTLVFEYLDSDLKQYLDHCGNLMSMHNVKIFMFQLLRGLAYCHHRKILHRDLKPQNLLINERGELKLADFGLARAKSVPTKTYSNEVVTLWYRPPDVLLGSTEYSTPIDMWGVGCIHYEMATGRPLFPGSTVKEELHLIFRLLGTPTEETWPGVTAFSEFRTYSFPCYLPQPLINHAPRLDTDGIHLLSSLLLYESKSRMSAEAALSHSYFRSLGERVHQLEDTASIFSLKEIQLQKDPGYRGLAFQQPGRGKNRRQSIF
T1 sequence (P53667 whole entry): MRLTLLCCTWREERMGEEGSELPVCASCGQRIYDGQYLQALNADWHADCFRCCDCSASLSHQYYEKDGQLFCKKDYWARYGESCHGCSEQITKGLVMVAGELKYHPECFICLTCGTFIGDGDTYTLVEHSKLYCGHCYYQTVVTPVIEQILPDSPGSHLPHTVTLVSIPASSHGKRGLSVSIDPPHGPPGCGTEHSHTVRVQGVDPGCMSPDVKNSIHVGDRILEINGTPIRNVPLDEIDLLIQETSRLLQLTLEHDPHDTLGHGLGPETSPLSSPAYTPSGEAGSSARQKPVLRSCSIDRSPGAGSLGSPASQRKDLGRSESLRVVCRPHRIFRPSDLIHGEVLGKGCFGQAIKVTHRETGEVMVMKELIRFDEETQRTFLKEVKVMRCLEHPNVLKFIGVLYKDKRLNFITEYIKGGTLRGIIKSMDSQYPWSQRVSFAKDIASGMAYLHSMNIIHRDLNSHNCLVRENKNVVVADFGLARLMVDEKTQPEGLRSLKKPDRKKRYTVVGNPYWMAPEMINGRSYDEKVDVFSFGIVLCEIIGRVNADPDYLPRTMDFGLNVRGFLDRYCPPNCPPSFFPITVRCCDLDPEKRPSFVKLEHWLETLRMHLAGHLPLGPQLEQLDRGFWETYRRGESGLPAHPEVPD
T2 sequence (Q96NX5 whole entry): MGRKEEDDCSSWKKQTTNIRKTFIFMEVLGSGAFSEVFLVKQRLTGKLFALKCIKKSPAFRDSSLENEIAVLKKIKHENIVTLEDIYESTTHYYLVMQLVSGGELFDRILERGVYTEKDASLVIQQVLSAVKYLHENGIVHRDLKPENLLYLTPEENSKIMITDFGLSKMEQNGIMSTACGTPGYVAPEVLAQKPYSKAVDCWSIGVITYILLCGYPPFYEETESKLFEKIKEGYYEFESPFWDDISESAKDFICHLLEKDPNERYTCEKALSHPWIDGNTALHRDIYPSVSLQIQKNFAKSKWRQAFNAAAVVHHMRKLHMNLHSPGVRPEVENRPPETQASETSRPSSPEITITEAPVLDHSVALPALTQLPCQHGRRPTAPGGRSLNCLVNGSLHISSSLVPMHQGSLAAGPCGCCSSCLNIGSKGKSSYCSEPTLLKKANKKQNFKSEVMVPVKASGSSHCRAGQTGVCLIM
T7 sequence (P27037 20-513): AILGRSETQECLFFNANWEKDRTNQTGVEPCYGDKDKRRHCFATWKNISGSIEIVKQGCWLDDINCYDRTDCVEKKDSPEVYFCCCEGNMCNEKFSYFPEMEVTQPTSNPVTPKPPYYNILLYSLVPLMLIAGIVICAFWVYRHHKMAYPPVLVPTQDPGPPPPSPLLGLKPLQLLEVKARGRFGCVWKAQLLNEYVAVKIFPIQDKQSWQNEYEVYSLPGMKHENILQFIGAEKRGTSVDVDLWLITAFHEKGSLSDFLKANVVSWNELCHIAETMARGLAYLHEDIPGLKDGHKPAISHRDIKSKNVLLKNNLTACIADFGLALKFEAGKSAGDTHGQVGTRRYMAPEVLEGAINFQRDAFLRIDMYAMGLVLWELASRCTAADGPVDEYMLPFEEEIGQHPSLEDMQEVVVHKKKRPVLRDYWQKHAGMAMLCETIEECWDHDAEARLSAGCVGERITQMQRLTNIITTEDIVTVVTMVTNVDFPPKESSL
T3 sequence (Q9BQI3 whole entry): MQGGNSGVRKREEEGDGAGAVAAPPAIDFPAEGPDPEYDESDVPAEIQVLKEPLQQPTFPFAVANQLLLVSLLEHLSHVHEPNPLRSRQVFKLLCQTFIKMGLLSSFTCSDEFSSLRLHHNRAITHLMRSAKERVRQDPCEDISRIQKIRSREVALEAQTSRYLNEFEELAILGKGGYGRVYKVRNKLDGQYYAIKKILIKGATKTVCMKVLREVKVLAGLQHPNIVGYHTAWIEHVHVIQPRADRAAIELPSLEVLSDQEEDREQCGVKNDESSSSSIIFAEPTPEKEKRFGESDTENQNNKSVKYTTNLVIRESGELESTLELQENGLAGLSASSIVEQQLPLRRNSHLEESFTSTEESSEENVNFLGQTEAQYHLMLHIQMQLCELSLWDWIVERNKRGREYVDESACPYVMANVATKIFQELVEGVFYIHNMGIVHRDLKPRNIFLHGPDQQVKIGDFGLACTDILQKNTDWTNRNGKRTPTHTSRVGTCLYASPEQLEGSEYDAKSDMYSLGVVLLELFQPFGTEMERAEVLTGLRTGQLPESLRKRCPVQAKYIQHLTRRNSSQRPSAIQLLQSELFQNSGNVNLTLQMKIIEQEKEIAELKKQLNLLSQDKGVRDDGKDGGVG
T6 sequence (P00533 25-1210 L861Q): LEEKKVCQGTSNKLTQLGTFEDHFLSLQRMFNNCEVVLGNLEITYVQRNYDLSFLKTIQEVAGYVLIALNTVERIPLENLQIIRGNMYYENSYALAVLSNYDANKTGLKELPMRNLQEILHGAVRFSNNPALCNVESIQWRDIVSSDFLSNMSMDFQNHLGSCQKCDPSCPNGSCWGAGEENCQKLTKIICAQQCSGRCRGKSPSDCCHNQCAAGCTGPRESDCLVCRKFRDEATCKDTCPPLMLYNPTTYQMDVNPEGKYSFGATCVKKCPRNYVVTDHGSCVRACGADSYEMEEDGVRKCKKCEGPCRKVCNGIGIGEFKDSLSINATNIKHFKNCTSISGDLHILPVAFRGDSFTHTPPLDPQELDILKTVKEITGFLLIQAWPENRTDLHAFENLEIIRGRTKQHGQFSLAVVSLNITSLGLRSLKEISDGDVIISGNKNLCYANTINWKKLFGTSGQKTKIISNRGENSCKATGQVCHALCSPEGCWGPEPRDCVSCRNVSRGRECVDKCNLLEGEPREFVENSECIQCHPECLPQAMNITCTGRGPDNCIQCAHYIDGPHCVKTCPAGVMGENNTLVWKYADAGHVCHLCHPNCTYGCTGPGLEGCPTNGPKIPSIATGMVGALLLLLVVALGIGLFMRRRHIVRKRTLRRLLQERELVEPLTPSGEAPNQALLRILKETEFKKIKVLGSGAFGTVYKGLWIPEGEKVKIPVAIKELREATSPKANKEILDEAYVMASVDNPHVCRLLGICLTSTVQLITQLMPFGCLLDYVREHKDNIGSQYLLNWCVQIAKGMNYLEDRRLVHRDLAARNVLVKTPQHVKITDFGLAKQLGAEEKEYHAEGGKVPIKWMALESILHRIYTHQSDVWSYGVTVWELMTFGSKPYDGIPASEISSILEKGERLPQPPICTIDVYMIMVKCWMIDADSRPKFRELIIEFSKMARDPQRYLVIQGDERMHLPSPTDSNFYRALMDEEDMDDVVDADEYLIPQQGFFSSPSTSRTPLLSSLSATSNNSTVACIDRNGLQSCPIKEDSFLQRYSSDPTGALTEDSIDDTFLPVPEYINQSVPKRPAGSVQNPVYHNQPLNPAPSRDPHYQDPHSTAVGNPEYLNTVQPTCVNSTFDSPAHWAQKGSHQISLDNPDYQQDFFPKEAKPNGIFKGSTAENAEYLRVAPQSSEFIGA
T4 sequence (P54756 25-1037): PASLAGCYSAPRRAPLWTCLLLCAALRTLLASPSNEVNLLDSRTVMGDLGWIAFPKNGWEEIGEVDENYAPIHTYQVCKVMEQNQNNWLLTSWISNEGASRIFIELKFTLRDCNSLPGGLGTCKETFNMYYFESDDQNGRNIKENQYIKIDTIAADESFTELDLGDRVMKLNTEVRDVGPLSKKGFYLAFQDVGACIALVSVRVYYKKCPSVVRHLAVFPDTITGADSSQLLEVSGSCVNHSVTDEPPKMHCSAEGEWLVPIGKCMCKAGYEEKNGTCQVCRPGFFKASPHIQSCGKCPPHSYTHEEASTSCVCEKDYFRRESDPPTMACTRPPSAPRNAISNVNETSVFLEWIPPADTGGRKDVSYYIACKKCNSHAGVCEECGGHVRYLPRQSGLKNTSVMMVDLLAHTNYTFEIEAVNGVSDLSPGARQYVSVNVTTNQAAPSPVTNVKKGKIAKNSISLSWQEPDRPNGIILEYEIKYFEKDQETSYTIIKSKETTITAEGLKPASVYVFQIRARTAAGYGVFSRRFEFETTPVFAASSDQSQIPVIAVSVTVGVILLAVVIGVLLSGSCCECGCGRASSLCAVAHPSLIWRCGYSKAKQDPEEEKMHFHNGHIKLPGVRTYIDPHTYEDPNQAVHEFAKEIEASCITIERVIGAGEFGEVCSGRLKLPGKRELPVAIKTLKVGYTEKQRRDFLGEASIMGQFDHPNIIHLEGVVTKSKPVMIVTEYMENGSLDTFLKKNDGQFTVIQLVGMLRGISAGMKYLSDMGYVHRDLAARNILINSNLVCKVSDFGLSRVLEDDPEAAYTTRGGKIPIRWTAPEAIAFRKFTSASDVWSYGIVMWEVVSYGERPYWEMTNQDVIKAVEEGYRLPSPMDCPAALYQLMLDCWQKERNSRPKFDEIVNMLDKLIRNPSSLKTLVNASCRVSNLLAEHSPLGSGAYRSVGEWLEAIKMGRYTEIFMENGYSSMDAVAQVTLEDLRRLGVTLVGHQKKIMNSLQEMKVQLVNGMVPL

SMILES | remaining binding at 1 µM (panel of 468 kinases [1]) [%] | remaining binding at 1 µM (panel of 468 kinases [2]) [%] | remaining binding at 1 µM (panel of 468 kinases [3]) [%] | remaining binding at 1 µM (panel of 468 kinases [4]) [%] | remaining binding at 1 µM (panel of 468 kinases [5]) [%] | remaining binding at 1 µM (panel of 468 kinases [6]) [%] | remaining binding at 1 µM (panel of 468 kinases [7]) [%] | remaining binding at 1 µM (panel of 468 kinases [8]) [%] | remaining binding at 1 µM (panel of 468 kinases [9]) [%] | remaining binding at 1 µM (panel of 468 kinases [10]) [%]
CNc1nc(Nc2ccc(S(=O)(=O)N3CCC(N4CCOCC4)CC3)cc2OC)nc2[nH]cc(Cl)c12 [Compound 12, 5-chloro-N2-(2-methoxy-4-((4-morpholinopiperidin-1-yl)sulfonyl)phenyl)-N4-methyl-7H-pyrrolo[2,3-d]pyrimidine-2,4-diamine] | 100 | 96 | 100 | 100 | 76 | 100 | 100 | 100 | 100 | 73
CNc1nc(Nc2ccc(C(=O)N3CCC(N4CCOCC4)CC3)c3c2OCO3)nc2[nH]cc(Cl)c12 [Compound 75, (7-((5-chloro-4-(methylamino)-7H-pyrrolo[2,3-d]pyrimidin-2-yl)amino)benzo[d][1,3]dioxol-4-yl)(4-morpholinopiperidin-1-yl)methanone] | 100 | 73 | 62 | 100 | 32 | 100 | 100 | 78 | 100 | 41
CNc1nc(Nc2ccc(P3(=O)CCN(C4CCOCC4)CC3)cc2OC)nc2[nH]cc(Cl)c12 [Compound 77, 4-(4-((5-chloro-4-(methylamino)-7H-pyrrolo[2,3-d]pyrimidin-2-yl)amino)-3-methoxyphenyl)-1-(tetrahydro-2H-pyran-4-yl)-1,4-azaphosphinane 4-oxide] | 100 | 65 | 81 | 100 | 78 | 100 | 100 | 82 | 100 | 65
